Measured values: patent publication US20210317134A1, “UBIQUITIN-SPECIFIC-PROCESSING PROTEASE 7 (USP7) MODULATORS AND USES THEREOF” (RAPT THERAPEUTICS, INC., priority 2019, published 2021)

Target: USP7 (Homo sapiens, UniProt Q93009)
Experiment: USP7 inhibitory potency (Table 1)
Assay type: biochemical

Chain of USP7 (Q93009 whole entry): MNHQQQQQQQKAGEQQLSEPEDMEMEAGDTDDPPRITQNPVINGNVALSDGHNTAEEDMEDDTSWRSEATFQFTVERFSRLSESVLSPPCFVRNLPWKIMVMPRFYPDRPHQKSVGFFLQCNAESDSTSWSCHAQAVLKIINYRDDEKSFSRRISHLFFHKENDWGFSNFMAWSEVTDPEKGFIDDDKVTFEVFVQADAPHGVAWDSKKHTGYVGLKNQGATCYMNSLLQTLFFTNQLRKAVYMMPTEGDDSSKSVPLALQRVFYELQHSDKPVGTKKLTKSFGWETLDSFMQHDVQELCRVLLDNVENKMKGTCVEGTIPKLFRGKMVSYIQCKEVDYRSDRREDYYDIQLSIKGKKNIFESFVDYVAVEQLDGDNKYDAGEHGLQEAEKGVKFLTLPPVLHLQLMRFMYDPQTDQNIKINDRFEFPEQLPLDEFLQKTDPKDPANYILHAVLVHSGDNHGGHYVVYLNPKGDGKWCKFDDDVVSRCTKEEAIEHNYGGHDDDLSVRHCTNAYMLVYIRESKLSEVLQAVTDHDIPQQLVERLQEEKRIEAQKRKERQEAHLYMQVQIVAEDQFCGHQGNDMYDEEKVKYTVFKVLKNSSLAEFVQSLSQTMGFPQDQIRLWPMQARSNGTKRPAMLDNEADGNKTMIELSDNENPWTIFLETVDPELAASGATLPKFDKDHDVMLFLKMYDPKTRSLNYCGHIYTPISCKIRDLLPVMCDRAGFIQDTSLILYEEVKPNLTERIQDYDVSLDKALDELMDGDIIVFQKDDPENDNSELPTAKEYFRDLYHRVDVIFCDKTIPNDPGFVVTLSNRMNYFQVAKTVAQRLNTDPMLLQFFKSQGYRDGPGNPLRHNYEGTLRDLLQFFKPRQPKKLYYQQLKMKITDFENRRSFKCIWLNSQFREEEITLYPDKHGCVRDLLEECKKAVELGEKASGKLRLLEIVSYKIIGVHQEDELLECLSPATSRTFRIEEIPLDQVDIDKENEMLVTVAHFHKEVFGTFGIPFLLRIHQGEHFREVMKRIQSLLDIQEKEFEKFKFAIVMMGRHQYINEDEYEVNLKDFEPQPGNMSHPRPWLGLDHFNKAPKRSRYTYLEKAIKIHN

Structure (SMILES) | IC50
CC(O)(CO)c1cc2nccc(-c3cc(Cl)cc4c3O[C@@H](C(=O)N3CCNCC3)C4)c2s1 (stereo partly drawn) [((2R)-5-chloro-7-(2-(1,2-dihydroxypropan-2-yl)thieno[3,2-b]pyridin-7-yl)-2,3-dihydrobenzofuran-2-yl)(piperazin-1-yl)methanone] | < 1000 nM
CC(C)S(=O)(=O)NCCc1cc2nccc(-c3cc(Cl)cc4c3O[C@@H](C(=O)N3CCNCC3)C4)c2s1 [(R)-N-(2-(7-(5-chloro-2-(piperazine-1-carbonyl)-2,3-dihydrobenzofuran-7-yl)thieno[3,2-b]pyridin-2-yl)ethyl)propane-2-sulfonamide] | < 1000 nM
O=C([C@H]1Cc2cc(Cl)cc(-c3ccnc4cc(C(O)(CO)CCl)sc34)c2O1)N1CCNCC1 (stereo partly drawn) [((2R)-5-chloro-7-(2-(1-chloro-2,3-dihydroxypropan-2-yl)thieno[3,2-b]pyridin-7-yl)-2,3-dihydrobenzofuran-2-yl)(piperazin-1-yl)methanone] | < 1000 nM
C[C@@H]1CNCCN1C(=O)C1Cc2cc(Cl)cc(-c3ccnc4[nH]ccc34)c2O1 (stereo partly drawn) [(5-chloro-7-(1H-pyrrolo[2,3-b]pyridin-4-yl)-2,3-dihydrobenzofuran-2-yl)((R)-2-methylpiperazin-1-yl)methanone] | 10000 to 30000 nM
CN(C)[C@H]1CCN(C(=O)[C@H]2Cc3cc(Cl)cc(-c4ccnc5ccsc45)c3O2)C1 [((R)-5-chloro-7-(thieno[3,2-b]pyridin-7-yl)-2,3-dihydrobenzofuran-2-yl)((S)-3-(dimethylamino)pyrrolidin-1-yl)methanone] | 1000 to 10000 nM
OCc1cc2nccc(-c3cc(Cl)cc4c3OC(c3nnn5c3CNCC5)C4)c2s1 (centres unmarked) [(7-(5-chloro-2-(4,5,6,7-tetrahydro-[1,2,3]triazolo[1,5-a]pyrazin-3-yl)-2,3-dihydrobenzofuran-7-yl)thieno[3,2-b]pyridin-2-yl)methanol] | 1000 to 10000 nM
CCC(O)c1ccc2c(-c3cc(Cl)cc4c3O[C@@H](C(=O)N3CCNCC3)C4)ccnc2c1 (stereo partly drawn) [((2R)-5-chloro-7-(7-(1-hydroxypropyl)quinolin-4-yl)-2,3-dihydrobenzofuran-2-yl)(piperazin-1-yl)methanone] | 1000 to 10000 nM
Cn1nc2c(c1[C@H]1Cc3cc(Cl)cc(-c4ncnc5cc(CO)oc45)c3O1)CNCC2 [(R)-(4-(5-chloro-2-(2-methyl-4,5,6,7-tetrahydro-2H-pyrazolo [4,3-c]pyridin-3-yl)-2,3-dihydrobenzofuran-7-yl)furo[3,2-d]pyrimidin-6-yl)methanol] | < 1000 nM
O=C([C@H]1Cc2cc(Cl)cc(-c3ccnc4cc(Cn5c(=O)cc[nH]c5=O)sc34)c2O1)N1CCNCC1 [(R)-3-((7-(5-chloro-2-(piperazine-1-carbonyl)-2,3-dihydrobenzofuran-7-yl)thieno[3,2-b]pyridin-2-yl)methyl)pyrimidine-2,4(1H,3H)-dione] | < 1000 nM
N#Cc1ccc2c(-c3cc(Cl)cc4c3O[C@@H](c3n[nH]c5c3CNCC5)C4)ccnc2c1 [(R)-4-(5-chloro-2-(4,5,6,7-tetrahydro-1H-pyrazolo[4,3-c]pyridin-3-yl)-2,3-dihydrobenzofuran-7-yl)quinoline-7-carbonitrile] | < 1000 nM
CCC(O)c1cc2nccc(-c3cc(Cl)cc4c3O[C@@H](c3ocnc3CN3CCNCC3)C4)c2s1 (stereo partly drawn) [1-(7-((R)-5-chloro-2-(4-(piperazin-1-ylmethyl)oxazol-5-yl)-2,3-dihydrobenzofuran-7-yl)thieno[3,2-b]pyridin-2-yl)propan-1-ol] | < 1000 nM
O=C([C@H]1Cc2cc(Cl)cc(-c3ncnc4cc(CN5C(=O)CCC5=O)oc34)c2O1)N1CCNCC1 [(R)-1-((4-(5-chloro-2-(piperazine-1-carbonyl)-2,3-dihydrobenzofuran-7-yl)furo[3,2-d]pyrimidin-6-yl)methyl)pyrrolidine-2,5-dione] | < 1000 nM
O=C1CCC(=O)N1Cc1cc2nccc(-c3cc(Cl)cc4c3O[C@@H](c3onc5c3CC(N3CCC3)CC5)C4)c2s1 (stereo partly drawn) [1-((7-((2R)-2-(5-(azetidin-1-yl)-4,5,6,7-tetrahydrobenzo[c]isoxazol-3-yl)-5-chloro-2,3-dihydrobenzofuran-7-yl)thieno[3,2-b]pyridin-2-yl)methyl)pyrrolidine-2,5-dione] | < 1000 nM
CN1CCC(N2CCN(C(=O)C3Cc4cc(Cl)cc(-c5ccnc6[nH]ccc56)c4O3)CC2)CC1 (centres unmarked) [(5-chloro-7-(1H-pyrrolo[2,3-b]pyridin-4-yl)-2,3-dihydrobenzofuran-2-yl)(4-(1-methylpiperidin-4-yl)piperazin-1-yl)methanone] | 10000 to 30000 nM

The next lines start with the values.

IC50 | Structure (SMILES)
1000 to 10000 nM | Clc1cc2c(c(-c3ccnc4[nH]ccc34)c1)OC(c1onc3c1CCNC3)C2 (centres unmarked) [3-(5-chloro-7-(1H-pyrrolo[2,3-b]pyridin-4-yl)-2,3-dihydrobenzofuran-2-yl)-4,5,6,7-tetrahydroisoxazolo[3,4-c]pyridine]
1000 to 10000 nM | Clc1cc2c(c(-c3ccncc3)c1)OC(c1onc3c1CNCC3)C2 (centres unmarked) [3-(5-chloro-7-(pyridin-4-yl)-2,3-dihydrobenzofuran-2-yl)-4,5,6,7-tetrahydroisoxazolo[4,3-c]pyridine]
1000 to 10000 nM | CCC(O)c1ccc2c(-c3cc(Cl)cc4c3O[C@@H](c3onc5c3CNCC5)C4)ccnc2c1 (stereo partly drawn) [1-(4-((R)-5-chloro-2-(4,5,6,7-tetrahydroisoxazolo[4,3-c]pyridin-3-yl)-2,3-dihydrobenzofuran-7-yl)quinolin-7-yl)propan-1-ol]
10000 to 30000 nM | OCC1Cc2nccc(-c3cc(Cl)cc4c3O[C@@H](c3onc5c3CNCC5)C4)c2O1 (stereo partly drawn) [(7-((R)-5-chloro-2-(4,5,6,7-tetrahydroisoxazolo[4,3-c]pyridin-3-yl)-2,3-dihydrobenzofuran-7-yl)-2,3-dihydrofuro[3,2-b]pyridin-2-yl)methanol]
10000 to 30000 nM | O=C1c2ccccc2C2(c3cc4ncnc(-c5cc(Cl)cc6c5O[C@@H](c5onc7c5CNCC7)C6)c4s3)OCCN12 (stereo partly drawn) [9b-(4-((R)-5-chloro-2-(4,5,6,7-tetrahydroisoxazolo[4,3-c]pyridin-3-yl)-2,3-dihydrobenzofuran-7-yl)thieno[3,2-d]pyrimidin-6-yl)-2,3-dihydrooxazolo[2,3-a]isoindol-5(9bH)-one]
1000 to 10000 nM | CCC(O)c1cc2ncnc(-c3cc(Cl)cc4c3O[C@@H](c3onc5c3CNCC5)C4)c2o1 (stereo partly drawn) [1-(4-((R)-5-chloro-2-(4,5,6,7-tetrahydroisoxazolo[4,3-c]pyridin-3-yl)-2,3-dihydrobenzofuran-7-yl)furo[3,2-d]pyrimidin-6-yl)propan-1-ol]
< 1000 nM | Clc1cc2c(c(-c3ccnc4ccccc34)c1)O[C@@H](c1onc3c1CNCC3)C2 [(R)-3-(5-chloro-7-(quinolin-4-yl)-2,3-dihydrobenzofuran-2-yl)-4,5,6,7-tetrahydroisoxazolo[4,3-c]pyridine]
< 1000 nM | COC(=O)NCc1cc2nccc(-c3cc(Cl)cc4c3O[C@@H](c3onc5c3CNCC5)C4)c2s1 [Methyl (R)-((7-(5-chloro-2-(4,5,6,7-tetrahydroisoxazolo[4,3-c]pyridin-3-yl)-2,3-dihydrobenzofuran-7-yl)thieno[3,2-b]pyridin-2-yl)methyl)carbamate]
< 1000 nM | CC[C@@H](O)c1cc2ncnc(-c3cc(Cl)cc4c3O[C@@H](c3onc5c3CNCC5)C4)c2s1 [(R)-1-(4-((R)-5-chloro-2-(4,5,6,7-tetrahydroisoxazolo[4,3-c]pyridin-3-yl)-2,3-dihydrobenzofuran-7-yl)thieno[3,2-d]pyrimidin-6-yl)propan-1-ol]
